The assay concerns high-cholesterol hyperlipidemia rats. The experiment in a line: In vivo lipid-lowering experiment in high-cholesterol hyperlipidemia rats. The settings on record: plasma, positive drug 8 mg/kg, half a month. Also noted: species or system Wistar rats. An excerpt: 56 male Wistar rats (8 weeks old, body weight: 200 g±20 g) were purchased from Beijing Vital River Laboratory Animal Technology Co., Ltd. All animals were fed with a normal diet adaptively for 1 week.
The rats were sampled every half month to determine the plasma total triglyceride (TG), total cholesterol (TC), low-density lipoprotein (LDL-C), and high-density lipoprotein (HDL-C) levels. 2 months later, all rats were anesthetized with isoflurane, and then blood samples were collected from the orbital vein using capillary tubes. The blood samples were centrifuged (4° C., 4,000 r×min^−1, and 15 min) to obtain plasma samples, a kit (purchased from Nanjing Jiancheng Biotechnology Co., Ltd., China) was used to make a standard curve, and a chromogenic reaction was conducted according to specified steps to determine the plasma TG, TC, LDL-C, and HDL-C levels, thereby determining whether hyperlipidemia models were successfully constructed.
The rats were intragastrically administered for half a month. The night before the experiment, the rats were fasted; and on the day of the experiment, the rats were weighed and resulting body weights were recorded. The rats were anesthetized with isoflurane, then blood was collected from the orbit and placed in a heparin sodium centrifuge tube, and blood samples were centrifuged (4° C., 4,000 r×min^−1, and 15 min) to obtain plasma samples. A kit (purchased from Nanjing Jiancheng Biotechnology Co., Ltd., China) was used to make a standard curve, and the plasma TG, TC, LDL-C, and HDL-C levels were determined according to specified steps. The rats were sacrificed through cervical dislocation, and then a liver tissue was collected and weighed. A liver index was calculated according to the following formula: liver index=liver weight (g)/rat weight (g).
Data analysis: In this experiment, the SPSS11.5 version was used to analyze data (3 repetitions), and analysis of variance (ANOVA) and intergroup Duncan multiple comparison were adopted.

On to `CCC(C)(C)C(=O)O[C@H]1C[C@@H](C)C=C2C=C[C@H](C)[C@H](CC[C@@H]3C[C@@H](O)CC(=O)O3)[C@H]21` [Simvastatin, simvastatin], for which the HDL-C is 2.89 ± 0.44 b mmol/L, the LDL-C is 0.51 ± 0.09 b mmol/L and the TG is on record as 0.87 ± 0.27 c mg/mL.

For the origin of these results see patent US11767374B2, “Method and use of Radix puerariae polysaccharide in promoting lipid-lowering activity” (JIANGXI UNIVERSITY OF TRADITIONAL CHINESE MEDICINE, priority 2020, dated 2023).
